Results taken from patent US11873291B2, “Quinoline cGAS antagonist compounds” (ImmuneSensor Therapeutics, Inc., priority 2020, dated 2024).

target: T1, recombinant human cGAS (aa147-522) (Homo sapiens, UniProt Q8N884); assay: In vitro inhibition assay of cGAS activity (ATP consumption, KinaseGlo Max); assay type: biochemical; settings: Table 2, read-out: cGAS Inhibition Results IC50
T1 construct: recombinant human cGAS (aa147-522); His6-SUMO (cleaved yes); made in house; host or cells: E. coli BL21/pLys
Method in brief: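 De-tagged recombinant human cGAS (aa147-522, 1.5 μg/mL) was incubated 20 min at 37 °C with herring testis DNA, 6.6 μM ATP and 0.1 mM GTP in Tris pH 7.5/MgCl2 buffer plus serial compound dilutions. Remaining ATP was read by KinaseGlo Max luminescence, and IC50 was fitted from % ATP consumption versus log concentration.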

T1 sequence (Q8N884 147-522): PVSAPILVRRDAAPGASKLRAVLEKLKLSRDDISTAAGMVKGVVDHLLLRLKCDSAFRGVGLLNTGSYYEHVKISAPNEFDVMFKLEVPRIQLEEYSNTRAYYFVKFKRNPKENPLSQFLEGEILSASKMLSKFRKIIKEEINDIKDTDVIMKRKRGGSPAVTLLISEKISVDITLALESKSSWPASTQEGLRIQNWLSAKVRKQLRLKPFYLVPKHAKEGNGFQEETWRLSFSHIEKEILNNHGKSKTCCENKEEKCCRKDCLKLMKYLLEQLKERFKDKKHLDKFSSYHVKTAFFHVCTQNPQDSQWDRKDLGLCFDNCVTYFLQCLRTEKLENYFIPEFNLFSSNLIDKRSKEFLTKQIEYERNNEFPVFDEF

Row | Compound | IC50
1 | Cc1cc(N2CCCC(S(N)(=O)=O)C2)c2ccc(Cl)c(Cl)c2n1 (stereo not drawn) [I-317] | > 30 µM
2 | NS(=O)(=O)OCC1CCCN(c2cc(-n3ccnc3)c3ccc(Cl)c(Cl)c3n2)C1 (stereo not drawn) [I-118] | < 2 µM
3 | Oc1cc(-c2cc(-n3ccnc3)c3ccc(Cl)cc3n2)ccn1 [I-59] | > 30 µM
4 | COc1c(Cl)ccc2c(-c3cn[nH]c3)cc(NCCO)nc12 [I-403] | > 30 µM
5 | O=C(O)c1cc(OCCO)cc(-c2cc(-n3ccnc3)c3ccc(Cl)cc3n2)c1 [I-29] | < 2 µM
6 | CC(C)[C@H](CS(N)(=O)=O)Nc1cc(-n2ccnc2)c2ccc(Cl)c(Cl)c2n1 [I-209] | > 30 µM
7 | O=C1CC[C@@H](CO)N1c1cc(-n2ccnc2)c2ccc(Cl)c(Cl)c2n1 [I-376] | > 30 µM
8 | O=C(O)[C@@H]1C[C@@H](C2CCCCC2)CN1c1cc(-c2cn[nH]c2)c2ccc(Cl)c(Cl)c2n1 [I-439] | 2 to 30 µM
9 | O=S(=O)(O)C1CCCN(c2cc(-n3ccnc3)c3ccc(Cl)c(Cl)c3n2)C1 (stereo not drawn) [I-115] | < 2 µM
10 | OCCC1CCCN(c2cc(-c3cn[nH]c3)c3ccc(Cl)c(Cl)c3n2)C1 (stereo not drawn) [I-375] | 2 to 30 µM
11 | CN(C)C(=O)[C@@H]1CCCN1c1cc(-n2ccnc2)c2ccc(Cl)c(Cl)c2n1 [I-453] | > 30 µM
12 | NS(=O)(=O)C1CCCN(c2cc(-c3cn[nH]c3)c3ccc(Cl)c(Cl)c3n2)C1 (stereo not drawn) [I-373] | < 2 µM
13 | OC[C@@H]1CCCN1c1cc(-c2cn[nH]c2)nc2c(Cl)c(Cl)ccc12 [I-298] | > 30 µM
14 | COc1c(Cl)ccc2c(NCCO)cc(-c3cn[nH]c3)nc12 [I-401] | > 30 µM
15 | COC(=O)c1cccc(-c2cc(-n3ccnc3)c3ccc(Cl)cc3n2)c1 [I-5] | 2 to 30 µM
16 | COc1cccc(-c2cc(-n3ccnc3)c3ccc(Br)cc3n2)c1 [I-382] | 2 to 30 µM
17 | Clc1cccc2c(-n3ccnc3)ccnc12 [I-408, 8-chloro-4-(1H-imidazol-1-yl)quinoline] | > 30 µM
18 | Cc1ccc2c(-c3cn[nH]c3)cc(NCCS(N)(=O)=O)nc2c1 [I-266] | > 30 µM
19 | Clc1ccc2c(-c3cn[nH]c3)cc(N(CCN3CCOCC3)Cc3ccccc3)nc2c1Cl [I-216] | 2 to 30 µM
20 | O=C(O)[C@@H]1CN(c2cc(-n3ccnc3)c3ccc(Cl)cc3n2)CC[C@@H]1O [I-136] | 2 to 30 µM
21 | CC(C)(C)OC(=O)NC[C@@H]1CCCN1c1cc(-n2ccnc2)c2ccc(Cl)c(Cl)c2n1 [I-152] | 2 to 30 µM
22 | NS(=O)(=O)CCNc1ccc2ccc(Cl)c(Cl)c2n1 [I-296] | > 30 µM
23 | O=C(O)C1CCCC(Nc2cc(-n3ccnc3)c3ccc(Cl)cc3n2)C1 (stereo not drawn) [I-366] | 2 to 30 µM
24 | O=C(O)[C@@H]1CCCN(c2cc(-n3ccnc3)c3ccc(Cl)cc3n2)C1 [I-357] | 2 to 30 µM

Row | Compound | IC50
25 | NS(=O)(=O)CCNc1cc(NCC(=O)O)c2ccc(Cl)c(Cl)c2n1 [I-318, (7,8-dichloro-2-((2-sulfamoylethyl)amino)quinolin-4-yl)glycine] | > 30 µM
26 | COc1c(Br)ccc2c(-n3ccnc3)cc(-c3ccccc3)nc12 [I-54, 7-bromo-4-(1H-imidazol-1-yl)-8-methoxy-2-phenylquinoline] | 2 to 30 µM
27 | C[C@@H](CS(N)(=O)=O)Nc1cc(-n2ccnc2)c2ccc(Cl)c(Cl)c2n1 [I-206] | 2 to 30 µM
28 | OCCNc1cc(-c2cn[nH]c2)nc2c(Cl)c(Cl)ccc12 [I-289, 2-((7,8-dichloro-2-(1H-pyrazol-4-yl)quinolin-4-yl)amino)ethan-1-ol] | 2 to 30 µM
29 | O=[PH](O)OC1CCCN(c2cc(-n3ccnc3)c3ccc(Cl)c(Cl)c3n2)C1 (stereo not drawn) [I-111, 1-(7,8-dichloro-4-(1H-imidazol-1-yl)quinolin-2-yl)piperidin-3-yl hydrogen phosphonate] | < 2 µM
30 | NS(=O)(=O)CCNc1cc(-c2cn[nH]c2)c2cc(C(F)(F)F)ccc2n1 [I-265] | > 30 µM
31 | Oc1ccc(-c2cc(-c3ccccc3)nc3cc(Cl)ccc23)cn1 [I-73] | > 30 µM
32 | O=S(=O)(O)CCCNc1cc(-n2ccnc2)c2ccc(Cl)c(Cl)c2n1 [I-160] | < 2 µM
33 | Cc1cc(-c2cn[nH]c2)c2ccc(Cl)c(Cl)c2n1 [I-406, 7,8-dichloro-2-methyl-4-(1H-pyrazol-4-yl)quinoline] | 2 to 30 µM
34 | O=C(O)CNC(=O)[C@H]1CN(c2cc(-c3cn[nH]c3)c3ccc(Cl)c(Cl)c3n2)CCO1 [I-343] | 2 to 30 µM
35 | CC(C)(NC(=O)C[C@@H]1CCCN1c1cc(-n2ccnc2)c2ccc(Cl)c(Cl)c2n1)C(=O)O [I-387] | < 2 µM
36 | Nc1cccc(-c2cc(-n3ccnc3)c3ccc(Cl)cc3n2)c1 [I-8, 3-(7-chloro-4-(1H-imidazol-1-yl)quinolin-2-yl)aniline] | 2 to 30 µM
37 | O=C(O)[C@@H]1C[C@@H](NS(=O)(=O)c2ccccc2)CN1c1cc(-n2ccnc2)c2ccc(Cl)c(Cl)c2n1 [I-349] | < 2 µM
38 | Oc1ccc(-c2cc(-n3ccnc3)c3ccc(Cl)cc3n2)cn1 [I-58] | > 30 µM
39 | OB(O)C1CCCN(c2cc(-n3ccnc3)c3ccc(Cl)c(Cl)c3n2)C1 (stereo not drawn) [I-120, (1-(7,8-Dichloro-4-(1H-imidazol-1-yl)quinolin-2-yl)piperidin-3-yl)boronic acid] | < 2 µM
40 | CN(CCC(=O)O)c1cc(-n2ccnc2)c2ccc(Cl)c(Cl)c2n1 [I-183] | < 2 µM
41 | Clc1ccc2c(-n3ccnc3)cc(N3CCC(c4nn[nH]n4)C3)nc2c1 (stereo not drawn) [I-155] | 2 to 30 µM
42 | NS(=O)(=O)CC(Cc1ccccc1)Nc1cc(-n2ccnc2)c2ccc(Cl)c(Cl)c2n1 (stereo not drawn) [I-208, 2-((7,8-dichloro-4-(1H-imidazol-1-yl)quinolin-2-yl)amino)-3-phenylpropane-1-sulfonamide] | 2 to 30 µM
43 | O=C(O)[C@@H]1C[C@H](Oc2ccccc2)CN1c1cc(-c2cn[nH]c2)c2ccc(Cl)c(Cl)c2n1 [I-360] | < 2 µM
44 | C[C@@H](Nc1cc(-c2cn[nH]c2)c2ccc(Cl)c(Cl)c2n1)C(=O)O [I-180] | 2 to 30 µM
45 | CCOC(=O)c1ccccc1-c1cc(-n2ccnc2)c2ccc(Cl)cc2n1 [I-12] | > 30 µM
46 | O=C(O)CNc1cc(-c2cn[nH]c2)nc2cc(Cl)cc(Cl)c12 [I-300] | > 30 µM
47 | CN(CCC(=O)O)c1cc(-c2cn[nH]c2)c2ccc(Cl)c(Cl)c2n1 [I-184] | < 2 µM

same assay, conditions: Table 3, read-out: cGAS Inhibition Results IC50

Row | Compound | IC50
48 | CN(CCNS(=O)(=O)c1ccc(C(=O)O)cc1)c1cc(-n2ccnc2)c2ccc(Cl)c(Cl)c2n1 [I-612] | 2 to 30 µM
49 | O=C(O)C1CCN(C(=O)C[C@@H]2CCCN2c2cc(-n3ccnc3)c3ccc(Cl)c(Cl)c3n2)C1 (stereo partly drawn) [I-524] | < 2 µM
50 | COC(=O)[C@@H]1CC[C@H](C)N1c1cc(-n2ccnc2)c2ccc(Cl)c(Cl)c2n1 [I-574] | 2 to 30 µM
51 | COC(=O)[C@@H]1[C@H](OC)CCN1c1cc(-n2ccnc2)c2ccc(Cl)c(Cl)c2n1 [I-647] | 2 to 30 µM
52 | CN(CCS(=O)(=O)NC1CCCC(C(=O)O)C1)c1cc(-n2ccnc2)c2ccc(Cl)c(Cl)c2n1 (stereo not drawn) [I-628] | < 2 µM
53 | COC(=O)C1=CCCN1c1cc(-n2ccnc2)c2ccc(Cl)c(Cl)c2n1 [I-652, methyl 1-(7,8-dichloro-4-(1H-imidazol-1-yl)quinolin-2-yl)-4,5-dihydro-1H-pyrrole-2-carboxylate] | 2 to 30 µM
54 | NS(=O)(=O)C1CCN(C(=O)C[C@@H]2CCCN2c2cc(-n3ccnc3)c3ccc(Cl)c(Cl)c3n2)C1 (stereo partly drawn) [I-537] | 2 to 30 µM
55 | COC(=O)CNC(=O)C[C@@H]1CCCN1c1cc(-n2ccnc2)c2ccc(Cl)c(Cl)c2n1 [I-531] | < 2 µM
56 | COC(=O)[C@H]1[C@H](O)CCN1c1cc(-n2ccnc2)c2ccc(Cl)c(Cl)c2n1 [I-497] | 2 to 30 µM
57 | COC(=O)C1N(c2cc(-n3ccnc3)c3ccc(Cl)c(Cl)c3n2)CCC1(C)C (stereo not drawn) [I-587] | 2 to 30 µM
58 | O=C1CC2CCCC(C1)N2c1cc(-n2ccnc2)c2ccc(Cl)c(Cl)c2n1 [I-491] | < 2 µM
59 | O=C(O)C1CCCCN1C(=O)C[C@@H]1CCCN1c1cc(-n2ccnc2)c2ccc(Cl)c(Cl)c2n1 (stereo partly drawn) [I-533] | < 2 µM
60 | COC(=O)[C@@H]1[C@@H](OCCC(=O)O)CCN1c1cc(-n2ccnc2)c2ccc(Cl)c(Cl)c2n1 [I-870] | 2 to 30 µM
61 | O=C(O)COC[C@@H]1[C@@H](O)CCN1c1cc(-n2ccnc2)c2ccc(Cl)c(Cl)c2n1 [I-697] | < 2 µM
62 | O=C1NCC2CCC1N2c1cc(-n2ccnc2)c2ccc(Cl)c(Cl)c2n1 (stereo not drawn) [I-503] | < 2 µM
63 | COC(=O)[C@@H]1[C@@H](C)CCN1c1cc(-n2ccnc2)c2ccc(Cl)c(Cl)c2n1 [I-590] | 2 to 30 µM
64 | O=C(O)c1ccn(CC[C@@H]2CCCN2c2cc(-n3ccnc3)c3ccc(Cl)c(Cl)c3n2)n1 [I-731] | < 2 µM
65 | COC(=O)C[C@@H]1CCCN1c1cc(-n2ccnc2)c2ccc(Cl)c(Cl)c2c1 [I-572, methyl (S)-2-(1-(7,8-dichloro-4-(1H-imidazol-1-yl)naphthalen-2-yl)pyrrolidin-2-yl)acetate] | < 2 µM
66 | O=C(O)CCOC[C@@H]1CCCN1c1cc(-n2ccnc2)c2ccc(Cl)c(-c3ccccc3)c2n1 [I-863, (S)-3-((1-(7-chloro-4-(1H-imidazol-1-yl)-8-phenylquinolin-2-yl)pyrrolidin-2-yl)methoxy)propanoic acid] | > 30 µM
67 | O=C(O)CCOC[C@@H]1[C@@H]2C[C@@H]2CN1c1cc(-n2ccnc2)c2ccc(Cl)c(Cl)c2n1 (stereo in doubt) [I-809] | < 2 µM
68 | COC(=O)CCN(CCC(=O)OC)C[C@@H]1CCCN1c1cc(-n2ccnc2)c2ccc(Cl)c(Cl)c2n1 [I-757, dimethyl 3,3′-(((1-(7,8-dichloro-4-(1H-imidazol-1-yl)quinolin-2-yl)pyrrolidin-2-yl)methyl)azanediyl)(S)-dipropionate] | 2 to 30 µM

same assay, conditions: cGAS Inhibition Results IC50, Table 2

Row | Compound | IC50
69 | CCOP(=O)(O)CNc1cc(-c2cn[nH]c2)c2ccc(Cl)c(Cl)c2n1 [I-253, Ethyl hydrogen (7,8-dichloro-4-(1H-pyrazol-4-yl)quinolin-2-ylamino)methylphosphonate] | < 2 µM
